Measured values reported in the METLIN SMRT retention time set (Domingo-Almenara et al. 2019).

Experiment: gradient 5% acetonitrile 3 min, to 50% in 2 min, to 85% in 15 min, held 3 min, 100 µL/min
Conditions: column: Zorbax Extend-C18 2.1 x 50 mm; eluents: water / acetonitrile, 0.1% formic acid
Procedure, shortened: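 Values are retention times taken from adduct peaks that software picked and an analyst inspected. The pure standards were run as mixtures of ~100 molecules on HPLC linked to a quadrupole time-of-flight mass spectrometer, in positive and negative ionization mode. A Zorbax Extend-C18 column (2.1 × 50 mm, 1.8 μm) was used at 100 μL/min with water and acetonitrile, each including 0.1% formic acid.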

Row | SMILES | RP-LC retention time
1 | O=C(NCc1ccc2c(c1)OCO2)C1CCN(C(=O)c2ccc(-c3noc(C4CC4)n3)cc2)CC1 | 796 s
2 | COc1ccc(NS(=O)(=O)c2cc(-c3cc(C(F)(F)F)on3)sc2C)cc1OC | 1020 s
3 | CCC(C)NC(=O)N1CCCN(C2=NS(=O)(=O)C(c3ccc(C)cc3)=C2C)CC1 (centres undefined) | 816 s
4 | CNC(=O)c1cc(C)nc2ccc(Cl)cc12 | 607 s
5 | Cc1ccc2cc(CCC(=O)NCCN3CCCCC3)c(=O)[nH]c2c1 | 601 s
6 | Cc1scc(CN2CCN(c3ccccn3)CC2)c1C | 578 s
7 | COc1ccc(C)cc1NC(=O)Cn1nc2cc(C)nc(-c3ccc(F)cc3)n2c1=O | 912 s
8 | CNC(=O)[C@H]1O[C@@H](n2cnc3c(NCc4ccc(N)cc4)ncnc32)C(O)[C@H]1O (some centres undefined) | 569 s
9 | CCCNC(=O)C1=Cc2cc(Br)ccc2OC=C1 | 944 s
10 | Cc1ccccc1NC(=O)Cc1csc2nc(-c3cccc(Br)c3)cn12 | 948 s
11 | COc1ccc(OCc2noc(CNC(=O)CSc3nnnn3C)n2)cc1 | 658 s
12 | COc1ccc(S(=O)(=O)N2CCCC(C(=O)NCCCOC(C)C)C2)cc1C (centres undefined) | 877 s
13 | Nc1nc(S(=O)(=O)Cc2ccccc2)ns1 | 637 s
14 | CSc1ccc(CNC(=O)C2CCCN(c3nccc(C)n3)C2)cc1 (centres undefined) | 763 s
15 | CCCN1C(=O)COc2ccc(-c3noc(-c4ccc(OC)cc4OC)n3)cc21 | 1100 s
16 | O=C(NCc1ccc(F)cc1Cl)C1CCCN(c2ncnc3c2oc2ccccc23)C1 (centres undefined) | 802 s
17 | Brc1cn2c(Nc3ccc4c(c3)OCO4)c(-c3ccccc3)nc2cn1 | 940 s
18 | CCN(CC)CCNC(=O)c1cn(C)nc1S(=O)(=O)N1CCN(c2cccc(Cl)c2)CC1 | 711 s
19 | Cc1cc(C)c(C#N)c(SCC(=O)N2CCOCC2)n1 | 721 s
20 | CCOc1ccc(N(C)C(=O)C2CCN(S(=O)(=O)c3ccc4c(c3)sc(=O)n4C)CC2)cc1 | 885 s
21 | Cc1cc(C)cc(Nc2c(-c3ccc(N4CCOCC4)cc3)nc3cnccn23)c1 | 895 s
22 | CC1Oc2ccccc2C=C1/C=C1\Oc2cc(OC(=O)N(C)C)ccc2C1=O (centres undefined) | 795 s
23 | COc1ccc(C)cc1NC(=O)NCCNC(=O)c1ccc(NC(=O)C2CCCC2)cc1 | 759 s

Row | SMILES | RP-LC retention time
24 | CNC(=O)N1CCC(OC(C)=O)CC1 | 583 s
25 | CN1CCN(C(=O)C2CCN(S(=O)(=O)c3cc(C(=O)N4CCCCCC4)cs3)CC2)CC1 | 619 s
26 | COc1ccc2c(c1)C1(CCN(C(=O)c3ccc(Cl)cc3)C1)C(=O)N2C (centres undefined) | 832 s
27 | CCn1nccc1C(=O)Nc1ccc2c(c1)CCC(=O)N2C | 644 s
28 | O=C(CS(=O)(=O)Cc1ccccc1)Nc1nc(-c2ccccn2)cs1 | 614 s
29 | O=S(=O)(Cc1ccc(Cl)cc1)N1CCc2nc(-c3ccc(F)cc3)ncc2C1 | 1100 s
30 | COc1ccccc1N1CC(c2nc3ccccc3n2CC(=O)N(C(C)C)C(C)C)CC1=O (centres undefined) | 752 s
31 | O=C(NCCc1csc(-c2ccccc2)n1)[C@H]1CCCN1S(=O)(=O)c1cccc2nsnc12 | 888 s
32 | CCOc1ccc(-c2cc3c(=O)n(CC(O)c4ccc(C(C)C)cc4)ccn3n2)cc1 (centres undefined) | 1120 s
33 | Cc1ccc(NS(=O)(=O)c2cc3c(s2)CCN(C(=O)C2CCC2)C3)cc1Cl | 1010 s
34 | CSc1ccc(CCNC(=O)c2nnc(-c3ccc(S(=O)(=O)N4CCCC4)cc3)o2)cc1 | 982 s
35 | COC(=O)C1=CN(c2cc(F)ccc2C)c2cc(F)ccc2S1(=O)=O | 842 s
36 | Cc1ccc(C)c(NC(=O)C2CCCN2S(C)(=O)=O)c1 (centres undefined) | 738 s
37 | Cc1cccc(CNC(=O)CN2C(=O)CCc3cc(Br)ccc32)c1 | 889 s
38 | CN1C(=O)Cc2cc(C(=O)NC3CCN(Cc4ccccc4)CC3)ccc21 | 892 s
39 | CCCN(Cc1ccc(OC)c(OC)c1)Cc1cc(=O)n2cc(C)ccc2n1 | 611 s
40 | Cc1cccn2cc(C(=O)NCCC(C)C)nc12 | 712 s
41 | Cc1cc(Oc2ncnc3c2cnn3-c2ccc(Cl)cc2)ccc1[N+](=O)[O-] | 1270 s
42 | Cc1ccc(C(O)Cn2ccn3nc(-c4ccc(F)cc4)cc3c2=O)cc1C (centres undefined) | 1020 s
43 | COC1=CC(=O)C[C@@H](C)C12Oc1c(Cl)c(OC)cc(OC)c1C2=O (some centres undefined) | 812 s
44 | COc1cccc(C(=O)Nc2nc(-c3ccc4c(c3)N(C)C(=O)CO4)c(C)s2)c1 | 978 s
45 | CCCSc1nc2c(c(=O)n(C)c(=O)n2C)n1C | 837 s
46 | Cc1csc(-c2ccc(N3CCN(C(=O)c4cc(Cl)ccc4F)CC3)nc2)n1 | 943 s

Row | SMILES | RP-LC retention time
47 | COc1cc(C(=O)NCCNc2cc(-n3cccn3)ncn2)cc(OC)c1OC | 631 s
48 | CCN1CCC2(CC1)OC(=O)C(C)=C2C(=O)NCCc1ccc(Cl)cc1 | 653 s
49 | Cn1cc(C(=O)NCc2ccccn2)c2cccnc21 | 552 s
50 | CCN(CC)C(=O)c1ccc2c(c1)N(CC(=O)NCc1ccco1)C(=O)C1CCCCN21 (centres undefined) | 783 s
51 | Cn1cccc1C(=O)N1CCC2(CC1)NC(=O)N(Cc1cccc(Cl)c1)C2=O | 821 s
52 | CCC1CN(C(=O)N2CCC(C(=O)NCCCN3CCCC3)CC2)c2ccccc2O1 (centres undefined) | 627 s
53 | COc1ccc(OC)c(NC(=O)N2CCC3(CC2)N=C(c2ccc(C)c(C)c2)C(=O)N3)c1 | 896 s
54 | Fc1ccc(-c2nc(-c3ccc(-n4ccnc4)nc3)no2)cc1F | 871 s
55 | CN(CCc1noc(-c2ccccc2)n1)C(=O)Nc1ccccc1Cl | 943 s
56 | COc1ccc2c(c1)CCc1sc(NC(=O)c3cc(Cl)ccc3OC)nc1-2 | 1270 s
57 | COc1ccc(CNC(=O)Cc2nnc(-c3ccsc3)o2)c(OC)c1 | 692 s
58 | O=C(c1ccc(OCC2CCN(C(=O)C3CCCC3)CC2)cc1)N1CCOCC1 | 764 s
59 | O=C1NC2(CCN(C(=O)c3ccc(F)c(F)c3)CC2)Nc2c(Cl)cccc21 | 777 s
60 | CCCc1noc(-c2nnn3c2COC(c2ccc(F)cc2)C3)n1 (centres undefined) | 1040 s
61 | Cc1cnc(C2CCOCC2)n1C1CCCN(Cc2c[nH]c3ccccc23)C1 (centres undefined) | 557 s
62 | CCC1Oc2ccc(S(=O)(=O)N3CCC(C(=O)Nc4ccc(C)c(F)c4)CC3)cc2NC1=O (centres undefined) | 892 s
63 | CS(=O)(=O)Nc1nc2ccccc2[nH]1 | 645 s
64 | COC(=O)CNC(=O)C1c2ccccc2C(=O)N(Cc2ccccc2)C12CCCC2 (centres undefined) | 857 s
65 | Cc1ccc(-c2nnc(C)c(NCc3ccccn3)n2)cc1 | 605 s
66 | CCC1CCCCN1CCCNC(=O)CCc1cc2cc(C)ccc2[nH]c1=O (centres undefined) | 600 s
67 | O=C(Cc1nc(-c2ccccc2)n[nH]1)NC1CCCCC1 | 714 s
68 | COc1ccc(NC(=O)CSc2nccc3c2ccn3C)c(OC)c1 | 687 s
69 | CCOc1ccc(NS(=O)(=O)c2cc(-c3[nH]ncc3C(=O)N3CCCC3)oc2C)cc1 | 717 s

Row | SMILES | RP-LC retention time
70 | O=C1CN(S(=O)(=O)c2ccc([N+](=O)[O-])cc2)c2ccccc2N1 | 738 s
71 | Cc1ccc(-c2nnc(-c3nn(C)c4c3CN(S(=O)(=O)c3ccc(F)c(Cl)c3)CC4)o2)cc1 | 970 s
72 | CCC(CC)COC(=O)c1[nH]c2c(c1C)C(=O)CC(c1ccc(OC)c(OC)c1)C2 (centres undefined) | 1140 s
73 | COc1ccc(-c2nc3cc(C)ccn3c2NC(=O)c2ccc(F)cc2)cc1OC | 597 s
74 | Cc1cc(=O)n(CC(=O)NCc2ccccc2Cl)c(N2CCOCC2)n1 | 662 s
75 | CNC(=O)c1nc(C(C)(C)NC(=O)c2ccoc2)nc2c1OCO2 | 624 s
76 | COc1ccc(-c2nnc(N3CCC(C(=O)N4CCN(C)CC4)CC3)o2)cc1 | 582 s
77 | Cc1cccc(NC(=O)Cc2csc3nc(-c4cccc(Br)c4)cn23)c1C | 983 s
78 | COCCN1CCn2cc(S(=O)(=O)Nc3ccccc3OC)cc2C1=O | 679 s
79 | C=CCN1C(=O)C(C)(C)COc2cc(NS(=O)(=O)C3CCCCC3)ccc21 | 932 s
80 | Cc1cc2n(n1)CCC(=O)N2CCCC(=O)N1CCN(C(=O)c2ccco2)CC1 | 604 s
81 | CSc1ccc(CNC(=O)C2CCCN(c3ccc(=O)n(-c4cccc(F)c4)n3)C2)cc1 (centres undefined) | 888 s
82 | COc1ccc(NC(=O)c2cc3c(=O)n(CC(C)C)c4ccccc4n3n2)cc1OC | 910 s
83 | CC(C)n1cc(CN2CCCCCNC(=O)[C@@H]3CCC[C@@H]32)c2ccccc21 | 701 s
84 | CCOc1ccccc1-c1noc(CN2C(=O)COc3ccc(S(=O)(=O)CC)cc32)n1 | 902 s
85 | CC1(C(=O)NC2CCCCC2)CN(S(=O)(=O)c2ccccc2)CC(=O)N1c1ccc(F)cc1 (centres undefined) | 959 s
86 | CCOc1ccc(C(=O)N2CCC3(CC2)NC(=O)c2ccc(F)cc2N3C)cc1 | 767 s
87 | Cn1c(=O)n(CCN2CCOCC2)c(=O)c2c1nc1n2CCCN1c1ccccc1 | 615 s
88 | CC(C)N1C(=O)Cc2ccccc2C1C(=O)NCc1ccco1 (centres undefined) | 720 s
89 | O=C(c1cc(C2CC2)n(CC(=O)N(Cc2ccccc2)c2ccccn2)n1)N1CCOCC1 | 687 s
